{"source": "paper PMC5218480", "about": "(PLoS ONE, 2017)", "system": "MV-4-11 cells", "experiment": "Gene expression microarray analysis (Affymetrix PrimeView) and GSEA", "assay_type": "cell-based, human", "parameters": "RFU PODN (11730768_x_at) / Fold change /veh PODN (11730768_x_at) / RFU LINC00158 (11744669_a_at) / Fold change /veh LINC00158 (11744669_a_at) / RFU DUSP10 (11751237_a_at) / Fold change /veh DUSP10 (11751237_a_at) / RFU ID3 (11757404_x_at) / Fold change /veh ID3 (11757404_x_at) / RFU PLEKHG5 (11737974_s_at) / Fold change /veh PLEKHG5 (11737974_s_at) / RFU LRRC4B (11730491_at) / Fold change /veh LRRC4B (11730491_at) / RFU GIMAP4 (11747438_a_at) / Fold change /veh GIMAP4 (11747438_a_at) / RFU KRT8 (11758183_x_at) / Fold change /veh KRT8 (11758183_x_at) / RFU CNN1 (11734310_a_at) / Fold change /veh CNN1 (11734310_a_at) / RFU VPS37D (11726825_at) / Fold change /veh VPS37D (11726825_at) / RFU C10orf10 (11716522_x_at) / Fold change /veh C10orf10 (11716522_x_at) / RFU KIR2DL2 /// KIR2DL4 /// KIR2DL5A /// KIR2DL5B /// KIR2DS1 /// KIR2DS2 /// KIR2DS3 /// KIR2DS4 /// KIR3DL3 /// KIR3DL3 /// KIR3DS1 (11738374_at) / Fold change /veh KIR2DL2 /// KIR2DL4 /// KIR2DL5A /// KIR2DL5B /// KIR2DS1 /// KIR2DS2 /// KIR2DS3 /// KIR2DS4 /// KIR3DL3 /// KIR3DL3 /// KIR3DS1 (11738374_at) / RFU C1QL1 (11718748_at) / Fold change /veh C1QL1 (11718748_at) / RFU TMPRSS4 (11747572_a_at) / Fold change /veh TMPRSS4 (11747572_a_at) / RFU HAMP (11756126_x_at) / Fold change /veh HAMP (11756126_x_at) / RFU RNFT2 (11725882_a_at) / Fold change /veh RNFT2 (11725882_a_at) / RFU NR4A2 (11747474_a_at) / Fold change /veh NR4A2 (11747474_a_at) / RFU ABCC12 (11746883_a_at) / Fold change /veh ABCC12 (11746883_a_at) / RFU TMEM136 (11760407_x_at) / Fold change /veh TMEM136 (11760407_x_at) / RFU CLDN22 /// WWC2 (11732394_at) / Fold change /veh CLDN22 /// WWC2 (11732394_at) / RFU HLA-DPB1 (11760878_x_at) / Fold change /veh HLA-DPB1 (11760878_x_at) / RFU SPINT1 (11716480_a_at) / Fold change /veh SPINT1 (11716480_a_at) / RFU GAP43 (11754022_s_at) / Fold change /veh GAP43 (11754022_s_at) / RFU A4GNT (11735810_at) / Fold change /veh A4GNT (11735810_at) / RFU PRB3 (11715151_x_at) / Fold change /veh PRB3 (11715151_x_at) / RFU TUBB4B (11761932_at) / Fold change /veh TUBB4B (11761932_at) / RFU CAPN14 (11732068_a_at) / Fold change /veh CAPN14 (11732068_a_at) / RFU TMCC2 (11721928_a_at) / Fold change /veh TMCC2 (11721928_a_at) / RFU IRGQ (11745062_a_at) / Fold change /veh IRGQ (11745062_a_at) / RFU FAM174B (11720279_a_at) / Fold change /veh FAM174B (11720279_a_at) / RFU TMPRSS4 (11748680_a_at) / Fold change /veh TMPRSS4 (11748680_a_at) / RFU FAM212B (11763350_a_at) / Fold change /veh FAM212B (11763350_a_at) / RFU PLEKHG5 (11743358_a_at) / Fold change /veh PLEKHG5 (11743358_a_at) / RFU ZSCAN30 (11745921_a_at) / Fold change /veh ZSCAN30 (11745921_a_at) / RFU CMKLR1 (11741424_a_at) / Fold change /veh CMKLR1 (11741424_a_at) / RFU LOC101060620 /// MAPK8IP1 (11723275_at) / Fold change /veh LOC101060620 /// MAPK8IP1 (11723275_at) / RFU SPTSSB (11747773_x_at) / Fold change /veh SPTSSB (11747773_x_at) / RFU PRSS12 (11739890_at) / Fold change /veh PRSS12 (11739890_at) / RFU BIN1 (11741810_x_at) / Fold change /veh BIN1 (11741810_x_at) / RFU WNT11 (11732464_a_at) / Fold change /veh WNT11 (11732464_a_at) / RFU C10orf10 (11716521_a_at) / Fold change /veh C10orf10 (11716521_a_at) / RFU C5orf56 (11738089_at) / Fold change /veh C5orf56 (11738089_at) / RFU CYB561 (11721691_x_at) / Fold change /veh CYB561 (11721691_x_at) / RFU ANKRD19P (11752326_a_at) / Fold change /veh ANKRD19P (11752326_a_at) / RFU OR2T12 /// OR2T33 /// OR2T8 (11738714_s_at) / Fold change /veh OR2T12 /// OR2T33 /// OR2T8 (11738714_s_at) / RFU VCAN (11748164_a_at) / Fold change /veh VCAN (11748164_a_at) / RFU JSRP1 (11732532_at) / Fold change /veh JSRP1 (11732532_at) / RFU KRTAP10-11 (11738290_x_at) / Fold change /veh KRTAP10-11 (11738290_x_at) / RFU MYO3A (11730013_a_at) / Fold change /veh MYO3A (11730013_a_at) / RFU EBF3 (11725865_a_at) / Fold change /veh EBF3 (11725865_a_at) / RFU CAMK2N1 (11719241_x_at) / Fold change /veh CAMK2N1 (11719241_x_at) / RFU C5orf56 (11738088_a_at) / Fold change /veh C5orf56 (11738088_a_at) / RFU OLFML3 (11715873_a_at) / Fold change /veh OLFML3 (11715873_a_at) / RFU LOC100653217 /// NTM (11731650_a_at) / Fold change /veh LOC100653217 /// NTM (11731650_a_at) / RFU MAPK11 (11762145_a_at) / Fold change /veh MAPK11 (11762145_a_at) / RFU FIZ1 (11724087_x_at) / Fold change /veh FIZ1 (11724087_x_at) / RFU OASL (11726364_x_at) / Fold change /veh OASL (11726364_x_at) / RFU SOX15 (11748057_x_at) / Fold change /veh SOX15 (11748057_x_at) / RFU CD79A (11719716_a_at) / Fold change /veh CD79A (11719716_a_at) / RFU HIST1H1D (11736915_at) / Fold change /veh HIST1H1D (11736915_at) / RFU CASKIN2 (11723855_a_at) / Fold change /veh CASKIN2 (11723855_a_at) / RFU LOC730098 (11760151_x_at) / Fold change /veh LOC730098 (11760151_x_at) / RFU OR4N2 (11742367_at) / Fold change /veh OR4N2 (11742367_at) / RFU PRRT2 (11749266_a_at) / Fold change /veh PRRT2 (11749266_a_at) / RFU SNX32 (11753110_a_at) / Fold change /veh SNX32 (11753110_a_at) / RFU CDHR5 (11726645_a_at) / Fold change /veh CDHR5 (11726645_a_at) / RFU RCAN1 (11760418_a_at) / Fold change /veh RCAN1 (11760418_a_at) / RFU FAM167A (11723789_a_at) / Fold change /veh FAM167A (11723789_a_at) / RFU FAM26E (11764081_at) / Fold change /veh FAM26E (11764081_at) / RFU ISYNA1 (11749810_s_at) / Fold change /veh ISYNA1 (11749810_s_at) / RFU ACY1 (11761880_at) / Fold change /veh ACY1 (11761880_at) / RFU 11764098_at / Fold change /veh 11764098_at / RFU SAMD14 (11745864_x_at) / Fold change /veh SAMD14 (11745864_x_at) / RFU NPB (11741838_a_at) / Fold change /veh NPB (11741838_a_at) / RFU TMPRSS6 (11731388_a_at) / Fold change /veh TMPRSS6 (11731388_a_at) / RFU KRTAP10-2 (11738614_at) / Fold change /veh KRTAP10-2 (11738614_at) / RFU ARHGAP8 /// PRR5-ARHGAP8 (11727945_x_at) / Fold change /veh ARHGAP8 /// PRR5-ARHGAP8 (11727945_x_at) / RFU KRTAP5-7 /// NADSYN1 (11734609_at) / Fold change /veh KRTAP5-7 /// NADSYN1 (11734609_at) / RFU RASL12 (11751679_a_at) / Fold change /veh RASL12 (11751679_a_at) / RFU CDKN2B (11736163_a_at) / Fold change /veh CDKN2B (11736163_a_at) / RFU PRF1 (11729649_at) / Fold change /veh PRF1 (11729649_at) / RFU, ZNF638 /// ZNF638-IT1 / Fold change vs veh, ZNF638 /// ZNF638-IT1 / RFU, PANK3 / Fold change vs veh, PANK3 / RFU, SH3YL1 / Fold change vs veh, SH3YL1 / RFU, ZEB2 / Fold change vs veh, ZEB2 / RFU, NRIP1 / Fold change vs veh, NRIP1 / RFU, PTTG1IP / Fold change vs veh, PTTG1IP / RFU, CAPN2 / Fold change vs veh, CAPN2 / RFU, MED14 / Fold change vs veh, MED14 / RFU, SNORA58 / Fold change vs veh, SNORA58 / RFU, C1orf63 / Fold change vs veh, C1orf63 / RFU, LRRFIP1 / Fold change vs veh, LRRFIP1 / RFU, NDUFAF7 / Fold change vs veh, NDUFAF7 / RFU, SLC12A2 / Fold change vs veh, SLC12A2 / RFU, IBTK / Fold change vs veh, IBTK / RFU, ESF1 / Fold change vs veh, ESF1 / Fold change vs veh, TMEM50B / RFU, TAOK1 / Fold change vs veh, TAOK1 / RFU, ACBD3 / Fold change vs veh, ACBD3 / RFU, TMA16 / Fold change vs veh, TMA16 / RFU, RWDD3 / Fold change vs veh, RWDD3 / RFU, BCAT1 / Fold change vs veh, BCAT1 / RFU, EDEM3 / Fold change vs veh, EDEM3 / RFU, TMEM33 / Fold change vs veh, TMEM33 / RFU, WDR75 / Fold change vs veh, WDR75 / RFU, AHCTF1 / Fold change vs veh, AHCTF1 / RFU, TFRC / Fold change vs veh, TFRC / RFU, ZDHHC17 / Fold change vs veh, ZDHHC17 / RFU, NOM1 / Fold change vs veh, NOM1 / RFU, ARL8B / Fold change vs veh, ARL8B / RFU, ZBTB11 / Fold change vs veh, ZBTB11 / RFU, TAMM41 / Fold change vs veh, TAMM41 / RFU, KIAA1704 /// LOC100996395 / Fold change vs veh, KIAA1704 /// LOC100996395 / RFU, ING1 / Fold change vs veh, ING1 / RFU, TRMT61B / Fold change vs veh, TRMT61B / RFU, FUBP3 / Fold change vs veh, FUBP3 / RFU, TP53 / Fold change vs veh, TP53 / RFU, TNKS2 / Fold change vs veh, TNKS2 / RFU, ZFP14 / Fold change vs veh, ZFP14 / RFU, ACTR2 / Fold change vs veh, ACTR2 / RFU, PPP3R1 / Fold change vs veh, PPP3R1 / RFU, PIK3R1 / Fold change vs veh, PIK3R1 / RFU, HNRNPA1 / Fold change vs veh, HNRNPA1 / RFU, RNF170 / Fold change vs veh, RNF170 / RFU, ZNF28 / Fold change vs veh, ZNF28 / RFU, RNGTT / Fold change vs veh, RNGTT / RFU, OGT / Fold change vs veh, OGT / RFU, BRD1 / Fold change vs veh, BRD1 / RFU, MARS / Fold change vs veh, MARS / RFU, ZNF655 / Fold change vs veh, ZNF655 / RFU, FAHD1 / Fold change vs veh, FAHD1 / RFU, BDP1 / Fold change vs veh, BDP1 / RFU, LRRCC1 / Fold change vs veh, LRRCC1 / RFU, ARID1A / Fold change vs veh, ARID1A / RFU, ZNF146 / Fold change vs veh, ZNF146 / RFU, ZNF330 / Fold change vs veh, ZNF330 / RFU, GPN3 / Fold change vs veh, GPN3 / RFU, C9orf123 / Fold change vs veh, C9orf123 / RFU, N4BP2L2 / Fold change vs veh, N4BP2L2 / RFU, ARFIP1 / Fold change vs veh, ARFIP1 / RFU, FAM179B / Fold change vs veh, FAM179B / RFU, BCL10 / Fold change vs veh, BCL10 / RFU, UHRF1BP1L / Fold change vs veh, UHRF1BP1L / RFU, BET1 / Fold change vs veh, BET1 / RFU, CNOT2 / Fold change vs veh, CNOT2 / RFU, ZNF268 / Fold change vs veh, ZNF268 / Fold change vs veh, ZNF507 / RFU, DGCR2 / Fold change vs veh, DGCR2 / RFU, WDSUB1 / Fold change vs veh, WDSUB1 / Fold change vs veh, HSP90B1 /// MIR3652 / RFU, ADSS / Fold change vs veh, ADSS / RFU, GK / Fold change vs veh, GK / RFU, ZNF148 / Fold change vs veh, ZNF148 / RFU, TAF9 / Fold change vs veh, TAF9 / RFU, SLC1A5 / Fold change vs veh, SLC1A5 / RFU, SLMO2 / Fold change vs veh, SLMO2 / RFU, ABCC4 / Fold change vs veh, ABCC4 / RFU, LOC101060439 /// RAP1B / Fold change vs veh, LOC101060439 /// RAP1B / RFU, RFX7 / Fold change vs veh, RFX7 / RFU, GTPBP10 / Fold change vs veh, GTPBP10 / RFU, CNEP1R1 / Fold change vs veh, CNEP1R1 / RFU, BIVM-ERCC5 /// ERCC5 / Fold change vs veh, BIVM-ERCC5 /// ERCC5 / RFU, ILF3 / Fold change vs veh, ILF3 / RFU 11762660_at / Fold change /veh 11762660_at / RFU VCAN (11757783_s_at) / Fold change /veh VCAN (11757783_s_at) / RFU DDX43 (11728927_at) / Fold change /veh DDX43 (11728927_at) / RFU KRT8 (11758188_x_at) / Fold change /veh KRT8 (11758188_x_at) / RFU NKD1 (11759106_at) / Fold change /veh NKD1 (11759106_at) / RFU SRD5A1 (11742802_a_at) / Fold change /veh SRD5A1 (11742802_a_at) / RFU TPSAB1 /// TPSB2 (11721975_s_at) / Fold change /veh TPSAB1 /// TPSB2 (11721975_s_at) / RFU GSTM3 (11746129_a_at) / Fold change /veh GSTM3 (11746129_a_at) / RFU IL23R (11737362_x_at) / Fold change /veh IL23R (11737362_x_at) / RFU TMEM51 (11727254_a_at) / Fold change /veh TMEM51 (11727254_a_at) / RFU PIWIL2 (11732686_x_at) / Fold change /veh PIWIL2 (11732686_x_at) / RFU ORM1 (11744905_x_at) / Fold change /veh ORM1 (11744905_x_at) / RFU CCDC152 (11743942_at) / Fold change /veh CCDC152 (11743942_at) / RFU ECM1 (11717891_a_at) / Fold change /veh ECM1 (11717891_a_at) / RFU IL23R (11748794_a_at) / Fold change /veh IL23R (11748794_a_at) / RFU TNFAIP8L3 (11732012_x_at) / Fold change /veh TNFAIP8L3 (11732012_x_at) / RFU MBOAT4 (11741988_at) / Fold change /veh MBOAT4 (11741988_at) / RFU 11764193_at / Fold change /veh 11764193_at / RFU TMEM53 (11763286_at) / Fold change /veh TMEM53 (11763286_at) / RFU MAGEB2 (11727129_at) / Fold change /veh MAGEB2 (11727129_at) / RFU TMEM200A (11744735_a_at) / Fold change /veh TMEM200A (11744735_a_at) / RFU CCDC152 (11751479_a_at) / Fold change /veh CCDC152 (11751479_a_at) / RFU FAM211A (11726209_a_at) / Fold change /veh FAM211A (11726209_a_at) / RFU RGS16 (11746705_a_at) / Fold change /veh RGS16 (11746705_a_at) / RFU VCAN (11755009_s_at) / Fold change /veh VCAN (11755009_s_at) / RFU RHOB (11743442_s_at) / Fold change /veh RHOB (11743442_s_at) / RFU RGS16 (11720943_a_at) / Fold change /veh RGS16 (11720943_a_at) / RFU RGS16 (11720944_at) / Fold change /veh RGS16 (11720944_at) / RFU, VPS4B / Fold change vs veh, VPS4B / RFU, CREB1 / Fold change vs veh, CREB1 / RFU, DNAJC13 / Fold change vs veh, DNAJC13 / RFU, GNAQ / Fold change vs veh, GNAQ / RFU, CDK5R1 / Fold change vs veh, CDK5R1 / RFU, ZRANB3 / Fold change vs veh, ZRANB3 / RFU, CUL4A / Fold change vs veh, CUL4A / RFU, CCNY / Fold change vs veh, CCNY / RFU, UFL1 / Fold change vs veh, UFL1 / RFU, COG3 / Fold change vs veh, COG3 / RFU, DIAPH2 / Fold change vs veh, DIAPH2 / RFU, SKA2 / Fold change vs veh, SKA2 / RFU, AFF3 / Fold change vs veh, AFF3 / RFU, LMF1 / Fold change vs veh, LMF1 / RFU, IPO11 / Fold change vs veh, IPO11 / RFU, DFFB / Fold change vs veh, DFFB / RFU, FOXP1 / Fold change vs veh, FOXP1 / RFU, CARD8 / Fold change vs veh, CARD8 / RFU, STRN3 / Fold change vs veh, STRN3 / RFU, ADK / Fold change vs veh, ADK / RFU, RASSF2 / Fold change vs veh, RASSF2 / RFU, WIPF1 / Fold change vs veh, WIPF1 / RFU, LARP1B / Fold change vs veh, LARP1B / RFU, RASA1 / Fold change vs veh, RASA1 / RFU, RB1 / Fold change vs veh, RB1 / RFU, PPFIA1 / Fold change vs veh, PPFIA1 / RFU, MAT2A / Fold change vs veh, MAT2A / RFU, CCT5 / Fold change vs veh, CCT5 / RFU, WDR92 / Fold change vs veh, WDR92 / RFU, CUX1 / Fold change vs veh, CUX1 / RFU, TTC7A / Fold change vs veh, TTC7A / RFU, TMEM135 / Fold change vs veh, TMEM135 / RFU, DEPTOR / Fold change vs veh, DEPTOR / RFU, CPM / Fold change vs veh, CPM / RFU, DNAJB6 / Fold change vs veh, DNAJB6 / RFU, CACNA2D3 / Fold change vs veh, CACNA2D3 / RFU, DTX4 / Fold change vs veh, DTX4 / RFU, TFCP2 / Fold change vs veh, TFCP2 / RFU, GMCL1 /// GMCL1P1 / Fold change vs veh, GMCL1 /// GMCL1P1 / RFU, AEBP2 / Fold change vs veh, AEBP2 / RFU, SNHG1 /// SNORD22 /// SNORD25 /// SNORD26 /// SNORD27 /// SNORD28 /// SNORD29 /// SNORD31 / Fold change vs veh, SNHG1 /// SNORD22 /// SNORD25 /// SNORD26 /// SNORD27 /// SNORD28 /// SNORD29 /// SNORD31 / Fold change (Aza/veh), C12orf56 (ProbeSet 11735607_a_at) / Fold change (ACY-1035/veh), C12orf56 (ProbeSet 11735607_a_at) / Fold change (Aza/veh), FGFR1OP (ProbeSet 11751329_s_at) / Fold change (ACY-1035/veh), FGFR1OP (ProbeSet 11751329_s_at) / Fold change (Aza/veh), VPS36 (ProbeSet 11739960_a_at) / Fold change (ACY-1035/veh), VPS36 (ProbeSet 11739960_a_at) / RFU SYPL1 (11715823_x_at) / Fold change /veh SYPL1 (11715823_x_at) / RFU IGFBP7 (11715501_s_at) / Fold change /veh IGFBP7 (11715501_s_at) / RFU REEP3 (11722064_at) / Fold change /veh REEP3 (11722064_at) / RFU IGLL1 (11728026_x_at) / Fold change /veh IGLL1 (11728026_x_at): dose or concentration left out as unconfirmed", "settings": "ProbeSet 11743567_s_at; LIST B"}
{"smiles": "Nc1ncn([C@@H]2O[C@H](CO)[C@@H](O)[C@H]2O)c(=O)n1", "note": "[azacitidine]", "values": [{"measurement": "RFU, ACBD3", "value": 255.44, "unit": "RFU"}]}
